Reference: patent US20240002438A1, “MELANOCORTIN LIGANDS AND METHODS OF USE THEREOF” (REGENTS OF THE UNIVERSITY OF MINNESOTA, priority 2021, published 2024)
Where a SMILES comes first, the peptide text is derived from it. [ ]: non-standard residue; d: D form. dPhe(4-I) = N[C@H](Cc1ccc(I)cc1)C(=O)O; 2Nal = N[C@@H](Cc1ccc2ccccc2c1)C(=O)O; d2Nal = N[C@H](Cc1ccc2ccccc2c1)C(=O)O

Columns and labels:
mMC3R = mMC3R (Mus musculus, UniProt P33033); experiment: mMC3R | Antagonist Potency Ki (nM); parameters: expressed in transfected cells; host or cells: HEK293
mMC3R, sequence (P33033 whole entry, looked up): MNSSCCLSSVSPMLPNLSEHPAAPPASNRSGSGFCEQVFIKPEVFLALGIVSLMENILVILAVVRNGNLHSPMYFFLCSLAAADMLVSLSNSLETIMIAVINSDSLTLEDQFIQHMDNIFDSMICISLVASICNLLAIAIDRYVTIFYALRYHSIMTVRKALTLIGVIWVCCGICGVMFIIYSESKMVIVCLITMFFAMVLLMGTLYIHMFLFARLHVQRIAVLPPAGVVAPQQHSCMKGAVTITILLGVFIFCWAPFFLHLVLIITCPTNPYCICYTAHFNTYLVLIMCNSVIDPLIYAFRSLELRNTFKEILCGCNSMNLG
From the text: (§1) Table printed on a drawing sheet, FIGURE 18
(§2) Title: Tetrapeptide Antagonist Pharmacology at the Mouse Melanocortin Receptors.^a
Head of the field: mMC3R | Antagonist Potency Ki (nM)
(§3) First copying reader's note: Columns 4 and 7 are empty spacer columns as printed; the table runs off the bottom of the sheet (continued on the next sheet) and footnotes a and b are not printed here.

mMC4R = mMC4R (Mus musculus, UniProt P56450); experiment: mMC4R | Antagonist Potency Ki (nM); parameters: expressed in transfected cells; host or cells: HEK293
mMC4R, sequence (P56450 whole entry, looked up): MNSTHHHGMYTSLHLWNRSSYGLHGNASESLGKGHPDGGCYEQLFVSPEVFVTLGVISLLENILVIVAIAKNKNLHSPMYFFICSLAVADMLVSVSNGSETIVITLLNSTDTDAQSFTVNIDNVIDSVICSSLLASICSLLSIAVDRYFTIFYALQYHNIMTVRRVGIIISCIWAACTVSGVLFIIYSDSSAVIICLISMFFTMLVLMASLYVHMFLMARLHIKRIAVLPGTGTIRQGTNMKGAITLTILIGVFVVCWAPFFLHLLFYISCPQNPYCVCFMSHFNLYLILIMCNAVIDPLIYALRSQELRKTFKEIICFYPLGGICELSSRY
From the text: as §1, §2
Head of the field: mMC4R | Antagonist Potency Ki (nM)
as §3

mMC5R = mMC5R (Mus musculus, UniProt P41149); experiment: cAMP AlphaScreen agonist assay at mMC5R, HEK293 cells; conditions: 100 μM
mMC5R, sequence (P41149 whole entry): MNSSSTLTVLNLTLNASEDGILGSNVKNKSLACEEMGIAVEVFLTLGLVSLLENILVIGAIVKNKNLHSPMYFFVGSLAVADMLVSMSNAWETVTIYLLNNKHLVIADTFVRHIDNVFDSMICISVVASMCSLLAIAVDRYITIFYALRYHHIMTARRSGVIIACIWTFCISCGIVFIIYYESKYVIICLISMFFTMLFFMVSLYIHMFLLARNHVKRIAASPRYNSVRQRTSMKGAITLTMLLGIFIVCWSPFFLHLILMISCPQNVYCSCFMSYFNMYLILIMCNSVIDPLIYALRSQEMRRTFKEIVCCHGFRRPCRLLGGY

With `CC(=O)N[C@H](Cc1ccc2ccccc2c1)C(=O)N[C@H](Cc1ccc2ccccc2c1)C(=O)N[C@@H](Cc1c[nH]c2ccccc12)C(=O)N[C@H](CCCCN)C(N)=O` [4 | COR1-29-2, Ac-DNal(2’)-DNal(2’)-Trp-DLys-NH2] (Ac-[d2Nal][d2Nal]W[dK]-NH2) the Ki (mMC3R) was 1600 nM and the Ki (mMC4R) was 200 nM.
With `CC(=O)N[C@H](Cc1ccc2ccccc2c1)C(=O)N[C@@H](CCCNC(=N)N)C(=O)N[C@H](Cc1ccc2ccccc2c1)C(=O)N[C@H](CCCCN)C(N)=O` [13 | COR1-29-5, Ac-DNal(2’)-Arg-DNal(2’)-DLys-NH2] (Ac-[d2Nal]R[d2Nal][dK]-NH2) the Ki (mMC3R) was 1000 nM and the Ki (mMC4R) was 6.3 nM.
Work on `CC(=O)N[C@H](Cc1ccc2ccccc2c1)C(=O)N[C@@H](CCCNC(=N)N)C(=O)N[C@H](Cc1ccc2ccccc2c1)C(=O)N[C@H](Cc1ccc2ccccc2c1)C(N)=O` [14 | COR2-57, Ac-DNal(2’)-Arg-DNal(2’)-DNal(2’)-NH2] (Ac-[d2Nal]R[d2Nal][d2Nal]-NH2) yielded a Ki (mMC3R) of 2000 nM and a Ki (mMC4R) of 500 nM.
`CC(=O)N[C@H](Cc1ccc2ccccc2c1)C(=O)N[C@@H](CCCNC(=N)N)C(=O)N[C@H](Cc1ccc2ccccc2c1)C(=O)N[C@@H](CCCNC(=N)N)C(N)=O` [15 | COR2-93, Ac-DNal(2’)-Arg-DNal(2’)-Arg-NH2] (Ac-[d2Nal]R[d2Nal]R-NH2) was tested, and the Ki (mMC3R) was 790 nM and the Ki (mMC4R) was 5 nM.
`CC(=O)N[C@H](Cc1ccc2ccccc2c1)C(=O)N[C@@H](CCCNC(=N)N)C(=O)N[C@@H](Cc1c[nH]c2ccccc12)C(=O)N[C@H](CCCCN)C(N)=O` [16 | COR1-29-6, Ac-DNal(2’)-Arg-Trp-DLys-NH2] (Ac-[d2Nal]RW[dK]-NH2) was tested, and the Ki (mMC3R) was 3200 nM and the Ki (mMC4R) was 20 nM.
`CC(=O)N[C@H](Cc1ccc2ccccc2c1)C(=O)N[C@@H](CCCNC(=N)N)C(=O)N[C@@H](Cc1c[nH]c2ccccc12)C(=O)N[C@H](Cc1ccc2ccccc2c1)C(N)=O` [17 | COR1-60, Ac-DNal(2’)-Arg-Trp-DNal(2’)-NH2] (Ac-[d2Nal]RW[d2Nal]-NH2) was tested, and the Ki (mMC3R) was 2000 nM and the Ki (mMC4R) was 100 nM.
`CC(=O)N[C@H](Cc1ccc2ccccc2c1)C(=O)N[C@@H](CCCNC(=N)N)C(=O)N[C@@H](Cc1c[nH]c2ccccc12)C(=O)N[C@@H](CCCNC(=N)N)C(N)=O` [18 | MDE10-27, Ac-DNal(2’)-Arg-Trp-Arg-NH2] (Ac-[d2Nal]RWR-NH2) was tested, and the Ki (mMC3R) was 160 nM and the Ki (mMC4R) was 5 nM.
`CC(=O)N[C@H](Cc1ccc2ccccc2c1)C(=O)N[C@@H](CCCNC(=N)N)C(=O)N[C@H](Cc1ccc(I)cc1)C(=O)N[C@H](CCCCN)C(N)=O` [19 | COR1-29-7, Ac-DNal(2’)-Arg-DPhe(pI)-DLys-NH2] showed a Ki (mMC3R) of 130 nM and a Ki (mMC4R) of 3.2 nM.
`CC(=O)N[C@H](Cc1ccc2ccccc2c1)C(=O)N[C@@H](CCCNC(=N)N)C(=O)N[C@H](Cc1ccc(I)cc1)C(=O)N[C@H](Cc1ccc2ccccc2c1)C(N)=O` [20 | COR2-15, Ac-DNal(2’)-Arg-DPhe(pI)-DNal(2’)-NH2] (Ac-[d2Nal]R[dPhe(4-I)][d2Nal]-NH2) was tested, and the Ki (mMC3R) was 790 nM and the Ki (mMC4R) was 320 nM.
Work on `CC(=O)N[C@H](Cc1ccc2ccccc2c1)C(=O)N[C@@H](CCCNC(=N)N)C(=O)N[C@@H](Cc1ccc2ccccc2c1)C(=O)N[C@H](Cc1ccc2ccccc2c1)C(N)=O` [23 | COR2-33, Ac-DNal(2’)-Arg-Nal(2’)-DNal(2’)-NH2] (Ac-[d2Nal]R[2Nal][d2Nal]-NH2) yielded a Ki (mMC4R) of 200 nM.
`CC(=O)N[C@H](Cc1ccc(I)cc1)C(=O)N[C@H](Cc1ccc2ccccc2c1)C(=O)N[C@H](Cc1ccc2ccccc2c1)C(=O)N[C@H](CCCCN)C(N)=O` [25 | COR1-80, Ac-DPhe(pI)-DNal(2’)-DNal(2’)-DLys-NH2] (Ac-[dPhe(4-I)][d2Nal][d2Nal][dK]-NH2) gave a Ki (mMC4R) of 500 nM.
In the case of “Ac-DNal(2′)-DNal(2′)-Nal(2′)-Arg-NH2 [compound 12]”, the “mMC5R partial stimulation, % of the maximal NDP-MSH signal” value (“mMC5R partial stimulation, %” below) (mMC5R) is reported as 40%.
With “Ac-DPhe(pI)-DNal(2′)-Nal(2′)-DLys-NH2 [compound 34]” the “mMC5R partial stimulation, %” value (mMC5R) was 50%.
In the case of Ac-[d2Nal][d2Nal]WR-NH2 [compound 6], the “mMC5R partial stimulation, %” value (mMC5R) is reported as 45%.
